Data on two compounds can be found in patent EP2792360A1, “(1aR,12bS)-8-cyclohexyl-11-fluoro-N-((1-methylcyclopropyl)sulfonyl)-1a-((3-methyl-3,8-diazabicyclo[3.2.1]oct-8-yl)carbonyl)-1,1a,2,2b-tetrahydrocyclopropa[d]indolo[2,1-a][2]benzazepine-5-carboxamide for use in treating HCV” (IP Gesellschaft für Management mbH, priority 2013, dated 2014).

Data set [1] can be described thus: Hygroscopicity of solid forms of compound of formula (IV) (Ph. Eur. classification). The format is physicochemical. How it is done: For the thermogravimetric analyses, approx. 5 - 10 mg of sample were placed in aluminum pans, accurately weighed and hermetically closed with perforation lids. […] The samples were then heated under a flow of nitrogen of about 50 mL/min using a heating rate of 5 K/min. The term "micronization" denotes a process whereby the particle size of a solid material is diminished to a d50 value of less than IOµm by the aid of a suitable method, such as milling, bashing or grinding. […] The term "anti-solvent crystallization" denotes a process wherein supers aturation and as a result thereof crystallisation is achieved by addition of an antisolvent to the product solution. The term "ambient conditions" denotes conditions as experienced in a standard laboratory, e.g. atmospheric pressure, air, ambient temperature between 18 °C and 28 °C, humidity between 30 %rH and 80 %rH. The term "hygroscopicity" describes the ability of a solid material to adsorb moisture. The hygroscopicity of a given API is characterized [European Pharmacopoeia - 6th Edition (2008), Chapter 5.11) by the increase in mass when the relative humidity is raised from 0 %rH to 90 %rH: o non-hygroscopic: weight increase Am < 0.2%; o slightly hygroscopic: weight increase 0.2% < Am < 2.0%; o hygroscopic: weight increase 2.0% < Am < 15.0%; o very hygroscopic: weight increase Am > 15.0%; o deliquescent: sufficient water is adsorbed to form a liquid. The IUPAC lamda convention (W.H. Powell, Pure & Appl. Chem. […] The bonding number "n" of a heteroatom is the sum of the total number of valence bonds to adjacent atoms, if any, and the number of attached hydrogen atoms. The bonding number of a heteroatom is standard when it has the value given in the following table: n=4: C, Si, Ge, Sn, Pb; n=3 B, N, P, As, Sb, Bi, n=2: O, S, Se, Te, Po; n=l; F, CI, Br, I, At. A nonstandard bonding number of a (neutral) heteroatom is indicated by the symbol "λη", where "n" is the bonding number. […]

The nature of data set [2]: Solid form stability of forms of compound of formula (IV) (Temperature / Humidity Controlled XRPD, storage, suspension). The format is physicochemical. How it is done: The term"XRPD" denotes the analytical method of X-Ray Powder Diffraction. XRPD patterns were recorded at ambient conditions in transmission geometry with a STOE STADI P diffractometer (Cu K alpha radiation source, primary monochromator, position sensitive detector, angular range 3° to 42° 2Theta, approximately 60 minutes total measurement time). The repeatability of the angular values is in the range of 2Theta ±0.2°. The term "approximately" given in combination with an angular value denotes the repeatability which is in the range of 2Theta ±0.2°. The samples were prepared and analyzed without further processing (e.g. grinding or sieving) of the substance. The relative XRPD peak intensity is dependent upon many factors such as structure factor, temperature factor, crystallinity, polarization factor, multiplicity, and Lorentz factor. Relative intensities may vary considerably from one measurement to another due to preferred orientation effects. Humidity Controlled XRPD analyses were performed in reflection geometry with a Siemens D5000 Diffractometer (Cu radiation source, Ni K beta filter, Scintillation detector, angular range 3° to 42° 2Theta, approximately 180 minutes total measurement time per humidity level). The diffractometer is equipped with an MRI (Materials Research Instruments) humidity chamber. The humidity within the chamber is adjusted with an ANSYCO humidity controller (SYCOS H-HOT). For single crystal structure analysis a single crystal sample was mounted in a nylon loop on a goniometer and measured at ambient conditions. Alternatively, the crystal was cooled in a nitrogen stream during measurement. Data were collected on a GEMINI R Ultra diffractometer from Oxford Diffraction. Cu-radiation of 1.54 A wavelength was used for data collection. Data was processed with the Oxford Diffraction CRYSALIS software. The crystal structure was solved and refined with standard crystallographic software. In this case the program ShelXTL from Bruker AXS (Karlsruhe) was used. The abbreviation "FWHM" denotes the full width at half maximum, which is a width of a peak (e.g. appearing in a spectrum, particularly in an XRPD pattern) at its half height. The term "sharp Bragg diffraction peak" in connection with X-ray diffraction patterns denotes a peak which is observed if Bragg' s law of diffraction is fulfilled. Generally, the FWHM of a sharp Bragg diffraction peak is less than 0.5° 2-theta. The term "amorphous halo" in connection with X-ray diffraction patterns denotes an approximately bell- shaped diffraction maximum in the X-ray powder diffraction pattern of an amorphous material. The FWHM of an amorphous halo is on principle larger than the FWHM of the peak of crystalline material. The terms "FTIR" and "IR" denote the analytical method of infrared spectroscopy. The IR-spectra of the samples are recorded as film of a Nujol suspension consisting of approx. 5 mg of sample and approx. 5 mg of Nujol (mineral oil) between two sodium chloride plates (cross section 13 mm) in transmittance with a FTIR- spectrometer. The spectra were recorded in spectral range between 4000 cm"1 and 600 cm"1, resolution 2 cm"1, and 300 coadded scans on a Magna 860 (thermo/Nicolet) equipped with a DTGS detector. The term "Raman" denotes the analytical method of Raman spectroscopy. For recording Raman spectra, the samples were spread on a glass slide. Raman spectra were recorded in the range of 150-3800 cm"1 with an ARAMIS (HoribaJobinYvon) Raman microscope equipped with a Peltier cooled CCD detector, at excitation of 633 nm, a 1200 1/mm grating, a x50 objective and with 3 exposures of 3s, or 7s for weak Raman scatterers. The term "DSC" denotes the analytical method of Differential Scanning Calorimetry. DSC thermograms were recorded using a Mettler-Toledo™ differential scanning calorimeter DSC820, DSC821 or DSC1 with a FRS05 sensor. […]

The nature of data set [3]: in vitro dissolution of micronized powders in SGF and FeSSIF (miniaturized, non-sink). The format is physicochemical. How it is done:
Example 28: in vitro Dissolution Results: The in vitro dissolution studies performed in this work were conducted in a miniaturized system with 100 mL dissolution medium per experiment. […] Simulated gastric fluid (SGF) was prepared with 2 g/L NaCl and 1 g/L Triton® X-100 in 0.1 N HCl. The resulting measured pH of SGF was 1.2. Simulated fed state intestinal fluid (FeSSIF) was prepared as previously reported in […]. et al. (Pharm. Res. […] Oral absorption of a drug compound from a solid dosage form is dependent on dissolution rate and solubility. […] Figure 21 of WO/2013/057124presents the dissolution profiles measured in simulated gastric fluid (SGF) and Figure 22 of WO/2013/057124shows the dissolution profiles in simulated fed state intestinal fluid (FeSSIF). […] Changes of pH values in the dissolution test samples taken at different time points were not observed. The ranking of the different solid forms with respect to dissolution speed and maximum drug concentration achieved was identical in both media. The differences in the dissolution profiles in SGF and FeSSIF can be explained by the different composition of the two media since the dissolution generally depends on a variety of factors such as pH, surfactant, buffer capacity, ionic strength, etc. […]

The nature of another data set: physchem. The protocol: Anal. Chem. Instrum. […] Drug Delivery Rev. […] The binding constant (K) of the gamma-CD inclusion complex ({drug4g}) was calculated from the initial straight line portion of the phase solubility diagram by linear regression, according to the following equation [T. Higuchi et al., Adv. Anal. Chem. Instrum.

Regarding `Cc1onc(-c2ccc(F)cc2)c1COc1ccc(C(=O)N2CCS(=O)(=O)CC2)cn1` [Form C ({drug4c}), (1,1-dioxo-1lambda6-thiomorpholin-4-yl)-{6-[3-(4-fluoro-phenyl)-5-methyl-isoxazol-4-ylmethoxy]-pyridin-3-yl]-methanone], the “hygroscopicity relative to Form A” value in data set [1] is given as “less hygroscopic than Form A”. Moreover, in data set [2], the “behaviour in the presence of water in suspended state” value is listed as “transforms into Form B” and the “thermodynamic stability of the solid form” value was “most stable polymorph overall”. For the same compound, in data set [2] (Form C: prolonged period, e.g. 30 days), the “phase change upon storage at 100 rH at ambient temperature” value is given as “does not induce this phase change”. In addition, in data set [2] (Temperature Controlled XRPD), the “solid form changes at elevated temperature” value is “do not show solid form changes”. Further, the “solubility in simulated gastric fluid (SGF)” value in data set [3] was “considerably improved as compared to Form B”.
Take `Cc1onc(-c2ccc(F)cc2)c1COc1ccc(C(=O)N2CCS(=O)(=O)CC2)cn1` [gamma-CD inclusion complex ({drug4g}), (1,1-dioxo-1lambda6-thiomorpholin-4-yl)-{6-[3-(4-fluoro-phenyl)-5-methyl-isoxazol-4-ylmethoxy]-pyridin-3-yl]-methanone]: the “binding constant (K)” value in the data set “physchem” came to 510.4 M⁻¹. Also, the “initial concentration achieved in dissolution” value in data set [3] (SGF and FeSSIF, room temperature, dropped in the first 60 min to a level comparable to polymorph C) is on record as “much higher initial concentration”.
